# Measurements taken from patent US4000310A, “Pharmaceutical compositions containing 6-methyl-3,4-diphenyl-3,4,5,6-tetrahydro-2-pyrone or derivatives thereof” (Union Chimique Continentale-U.C.C, priority 1974, dated 1976).
# What was measured:
# [1] = test system: monoamine oxidase; test: Monoamine oxidase inhibition (tryptamine test); type: in vivo, rat (male, Wistar Af stock); conditions: rat, 64 mg/kg i.p.; tryptamine 3 mg/kg i.v.
# Protocol: (§1) All the experiments described below were carried out using male rats weighing from 170 to 220 g (Wistar Af stock) and male mice weighing from 18 to 23 g (Swiss NMRI stock).
# The dose of tryptamine given was insufficient to induce convulsions (3 mg/kg by intravenous injection).
# [2] = test system: mouse; test: Interaction with electric shocks; type: in vivo, mouse (male, Swiss NMRI stock); conditions: mouse, 16, 32, 64 or 128 mg/kg oral 60 min before electric shock
# Protocol: as §1
# [3] = test system: rat; test: Motor activity in the rat (actimeters with photoelectric cells); type: in vivo, rat (male, Wistar Af stock)
# Protocol: as §1
# Motor activity was determined with the aid of actimeters with photoelectric cells described by Tedeschi and Coll (J. Pharm. sci. 1964, 53, 1046-1049). A minimum of 10 animals were always used per point. They show a large increase in the motor activity of rats, which becomes significant from a dose of 32 mg/kg given orally.
# [4] = test system: rat; test: Amphetamine stereotypy test; type: in vivo, rat (male, Wistar Af stock); conditions: rat, 32, 64 or 128 mg/kg oral 60 min before amphetamine 2 mg/kg i.p.
# Protocol: as §1
# [5] = test system: rats; test: Test of anticataleptic action (prochlorperazine catalepsy); type: in vivo, rat (male, Wistar Af stock); conditions: 16 or 64 mg/kg i.p. or oral, prochlorperazine 8 mg/kg i.p., homolateral paws, Buddha or elevator test
# Protocol: as §1
# [6] = Determination of acute toxicity in the mouse; type: in vivo; conditions: in vivo, Behrens and Karber
# Protocol: as §1
# (§2) All the experiments took place in a laboratory with a constant temperature (22° ± 1° C).
# (§3) All the experiments were carried out blind (without the experimenter knowing, at the time of the tests, which animals had received the substance presumed active).
# (§4) Unless otherwise stated, 10 animals were always used per point.
# [7] = test system: mouse; test: Determination of acute toxicity in the mouse; type: in vivo
# Protocol: as §1, §2, §3, §4
# [8] = test system: rat; test: Apomorphine stereotypy test; type: in vivo, rat (male, Wistar Af stock); conditions: rat, 32, 64 or 128 mg/kg oral 60 min before apomorphine 0.5 mg/kg s.c.
# Protocol: as §1
# [9] = test system: mouse; test: Motor activity in the mouse (actimeters with photoelectric cells); type: in vivo, mouse (male, Swiss NMRI stock); conditions: for motor activity relative to the control group: 64 mg/kg oral
# Protocol: as §1
# Motor activity was determined using actimeters with photoelectric cells (Boissier and Simon, Arch. int. Pharmacodyn., 1965, 158, 212-221). A minimum of 12 animals were always used per point.
# a. MDTP is administered orally at variable times before activity is measured.
# b. When administered orally 30 minutes before the actograph is taken, MDTP increases the motor activity of mice.
# c. When administered orally immediately before the actograph is taken, MDTP (128 mg/kg) brings a marked increase in the motor activity of mice up to the 150th minute (Table I).
# [10] = test system: mice; test: Test for antireserpine action, mice; type: in vivo, mouse (male, Swiss NMRI stock); conditions: mice, 8, 16, 32 and 64 mg/kg oral; reserpine 2.5 mg/kg i.p. 4 hours before
# Protocol: as §1
# [11] = test system: animals; test: Test with the board containing holes; type: in vivo
# Protocol: The method and apparatus described by BOISSIER and SIMON (Physiol. Behav. 1967, 2, 444-448) were used. During these experiments 15 animals were used per batch (except that 30 were used for the control group and 30 for the dose of 64 mg/kg).
# [12] = test system: rat; test: Avoidance conditioning in the rat (shuttle-box); type: in vivo, rat (male, Wistar Af stock); conditions: 64 mg/kg oral, 8 animals
# Protocol: as §1
# The avoidance conditioning was studied in the rat placed in a shuttle-box (with 2 compartments) (of. BOISSIER and SIMON: Therapie 1968, 23, 1267-1276).
# [13] = test system: animals; test: animal or person; type: in vivo, rat and mouse
# Protocol: an increase in the activity and alertness of animals without abnormal behaviour and particularly stereotyped movements ever appearing. Increased activity and alertness were found in both the rat and the mouse by observing the animals, measuring their motor activity and measuring their exploration of a board containing holes and the shortening of the reaction time of mice on a hot-plate. The increase is marked (according to the tests) from doses of 16 to 32 mg/kg given orally; it takes place rapidly after administration and lasts about 2 hours. These doses are far from the toxic level (ratio LD50/ED 50 approximately 20/1 in the mouse and over 10/1 in the rat);
# [14] = test system: rat; test: Observation of the animals, rat; type: in vivo, rat (male, Wistar Af stock)
# Protocol: as §1, §2, §3, §4
# [15] = 16 mg/kg orally 15 min before test
# [16] = 32 mg/kg orally 15 min before test
# [17] = 64 mg/kg orally 15 min before test
# [18] = 128 mg/kg orally 15 min before test
# [19] = 16 mg/kg orally 60 min before test
# [20] = 32 mg/kg orally 60 min before test
# [21] = 64 mg/kg orally 60 min before test
# [22] = 128 mg/kg orally 60 min before test
smiles,measurement,setting,value
"CC1CC(c2ccccc2)C(c2ccccc2)C(=O)O1 (centres unmarked) [MDTP, 6-methyl-3,4-diphenyl-3,4,5,6-tetrahydro-2-pyrone]",effects of tryptamine (inhibiting effect on monoamine oxidase),[1],did not increase the effects of tryptamine
same,duration or form of convulsive attacks,[2],did not affect either the duration or the form of the convulsive attacks
same,mortality after the attack,[2],did not lead to any increase in mortality after the attack
same,Number of bars passed over after 5 min,[3]; [15],131 % of control group
same,Number of bars passed over after 10 min,[3]; [15],135 % of control group
same,Number of bars passed over after 15 min,[3]; [15],148 % of control group
same,Number of bars passed over after 20 min,[3]; [15],145 % of control group
same,Number of bars passed over after 25 min,[3]; [15],144 % of control group
same,Number of bars passed over after 30 min,[3]; [15],133 % of control group
same,Number of bars passed over after 5 min,[3]; [16],186 % of control group
same,Number of bars passed over after 10 min,[3]; [16],184 % of control group
same,Number of bars passed over after 15 min,[3]; [16],135 % of control group
same,Number of bars passed over after 20 min,[3]; [16],138 % of control group
same,Number of bars passed over after 25 min,[3]; [16],155 % of control group
same,Number of bars passed over after 30 min,[3]; [16],161 % of control group
same,Number of bars passed over after 5 min,[3]; [17],155 % of control group
same,Number of bars passed over after 10 min,[3]; [17],181 % of control group
same,Number of bars passed over after 15 min,[3]; [17],178 % of control group
same,Number of bars passed over after 20 min,[3]; [17],200 % of control group
same,Number of bars passed over after 25 min,[3]; [17],186 % of control group
same,Number of bars passed over after 30 min,[3]; [17],195 % of control group
same,Number of bars passed over after 5 min,[3]; [18],210 % of control group
same,Number of bars passed over after 10 min,[3]; [18],215 % of control group
same,Number of bars passed over after 15 min,[3]; [18],209 % of control group
same,Number of bars passed over after 20 min,[3]; [18],217 % of control group
same,Number of bars passed over after 25 min,[3]; [18],215 % of control group
same,Number of bars passed over after 30 min,[3]; [18],201 % of control group
same,minimal effective dose,"[3]; oral, read-out: dose from which increase in motor activity becomes significant",32 mg/kg
same,change in amphetamine-induced stereotyped movements,[4],did not bring about any change in the stereotyped movements
same,change in cataleptic state,[5],did not produce any change in the cataleptic state
same,LD50,"[6]; ip, intraperitoneal",150 mg/kg
same,LD50,[6]; oral,625 mg/kg
same,ratio LD50/ED 50,[7],approximately 20/1
same,change in apomorphine-induced stereotyped movements,[8],did not bring about any change in the sterotyped movements
same,motor activity relative to the control group,[9]; 15 min pretreatment,221%
same,motor activity relative to the control group,[9]; 30 min pretreatment,192%
same,motor activity relative to the control group,[9]; 60 min pretreatment,161%
same,motor activity relative to the control group,[9]; 120 min pretreatment,136%
same,"Number of bars passed over by mice, 150 to 180 min","[9]; 128 mg/kg orally, control group 8",25
same,"Number of bars passed over by mice, 60 to 90 min","[9]; 128 mg/kg orally, control group 12",244
same,"Number of bars passed over by mice, 120 to 150 min","[9]; 128 mg/kg orally, control group 14",66
same,"Number of bars passed over by mice, 90 to 120 min","[9]; 128 mg/kg orally, control group 15",99
same,"Number of bars passed over by mice, 30 to 60 min","[9]; 128 mg/kg orally, control group 82",428
same,"Number of bars passed over by mice, 0 to 30 min","[9]; 128 mg/kg orally, control group 390",846
same,minimal effective dose,"[9]; 0.5 h, mouse, oral, 30 min before actograph, read-out: dose from which increase in motor activity becomes significant",32 mg/kg
same,dose dependence of increase in motor activity,"[9]; mouse, oral, 30 min before actograph",proportional to the dose administered
same,change in reserpine-induced hypothermia or palpebral ptosis,[10],did not produce any change in the hypothermia or palpebral ptosis
same,displacements made in 5 min,[11]; [19],98 % of control group
same,holes explored in 5 min,[11]; [19],120 % of control group
same,displacements made in 5 min,[11]; [20],115 % of control group
same,holes explored in 5 min,[11]; [20],131 % of control group
same,displacements made in 5 min,[11]; [21],161 % of control group
same,holes explored in 5 min,[11]; [21],140 % of control group
same,displacements made in 5 min,[11]; [22],159 % of control group
same,holes explored in 5 min,[11]; [22],141 % of control group
same,minimal effective dose,"[11]; oral, read-out: dose from which increase in number of holes explored becomes significant",32 mg/kg
same,change in avoidance conditioning,[12],did not produce any change in conditioning
same,"signs of sympathetic excitation, sleep preventing action",[13]; in vivo,"does not give rise to any signs of sympathetic excitation, any sleep preventing action"
same,sleep inhibiting effect,[13]; in vivo,does not have any sleep inhibiting effect
same,duration of increase in activity and alertness,"[13]; oral, rat and mouse",about 2 hours
same,minimal effective dose,"[13]; po, read-out: doses from which increase in activity and alertness is marked",16 to 32 mg/kg
same,sexual behaviour,[14],An increase in sexual behaviour
same,"diameter of the pupils, rectal temperature",[14]; doses below toxic level,no change in diameter of the pupils or the rectal temperature
same,"motor incoordination, abnormal or stereotyped movements",[14]; doses below toxic level,not accompanied by motor incoordination or by abnormal or stereotyped movements
same,hyperthermia,[14]; doses very close to lethal level,moderate hyperthermia
same,toxic signs,[14]; in vivo,"tremors, hyperreactivity to very intense stimuli, interaggressiveness and convulsive phenomena with the rear paws stretched"
same,excitation on observation,"[14]; oral or intraperitoneal, from 16 mg/kg, below toxic level",slight excitation is observed with increased reaction to touching or to sound stimuli
same,minimal effective dose,"[14]; oral or intraperitoneal, read-out: dose from which slight excitation is observed",16 mg/kg
